Experimental data as given in patent US6544985B2, “Dihydro-benzo [b][1,4]diazepin-2-one derivatives” (Hoffman-La Roche Inc., priority 2001, dated 2003).

Structure (SMILES) | melting point
CN(C)c1cc2c(cc1Cl)NC(=O)CC(c1cccc(C#N)c1)=N2 [Example 1, 3-(7-Chloro-8-dimethylamino-4-oxo-4,5-dihydro-3H-benzo[b][1,4]diazepin-2-yl)-benzonitrile] | > 250 °C
CN(C)c1cc2c(cc1Cl)NC(=O)CC(c1cccc(-n3ccnn3)c1)=N2 [Example 2, 8-Chloro-7-dimethylamino-4-(3-[1,2,3]triazol-1-yl-phenyl)-1,3-dihydro-benzo[b][1,4]diazepin-2-one] | 222 to 225 °C
CN(C)c1cc2c(cc1C#Cc1ccccc1)NC(=O)CC(c1cccc(C#N)c1)=N2 [Example 4, 3-(8-Dimethylamino-4-oxo-7-phenylethynyl-4,5-dihydro-3H-benzo[b][1,4]diazepin-2-yl)-benzonitrile] | 215 to 216 °C
CN(C)c1cc2c(cc1C#Cc1ccccc1)NC(=O)CC(c1cccc(-n3ccnn3)c1)=N2 [Example 5, 7-Dimethylamino-8-phenylethynyl-4-(3-[1,2,3]triazol-1-yl-phenyl)-1,3-dihydro-benzo[b][1,4]diazepin-2-one] | 185 to 186 °C
Cc1cc(-c2cccc(C3=Nc4cc(N(C)C)c(Cl)cc4NC(=O)C3)c2)on1 [Example 6, 8-Chloro-7-dimethylamino-4-[3-(3-methyl-isoxazol-5-yl)-phenyl]-1,3-dihydro-benzo[b][1,4]diazepin-2-one] | 212 to 215 °C
Cc1cc(-c2cc(C3=Nc4cc(N(C)C)c(Cl)cc4NC(=O)C3)ccn2)on1 [Example 10, 8-Chloro-7-dimethylamino-4-[2-(3-methyl-isoxazol-5-yl)-pyridin-4-yl]-1,3-dihydro-benzo[b][1,4]diazepin-2-one] | > 250 °C
COCCN(C)c1cc2c(cc1Cl)NC(=O)CC(c1ccnc(-c3cc(C)no3)c1)=N2 [Example 12, 8-Chloro-7-[(2-methoxy-ethyl)-methyl-amino]-4-[2-(3-methyl-isoxazol-5-yl)-pyridin-4-yl]-1,3-dihydro-benzo[b][1,4]diazepin-2-one] | 213 °C
COCCN(C)c1cc2c(cc1Cl)NC(=O)CC(c1cccc(-n3nncc3CO)c1)=N2 [Example 13, 8-Chloro-4-[3-(5-hydroxymethyl-[1,2,3]triazol-1-yl)-phenyl]-7-[(2-methoxy-ethyl)-methyl-amino]-1,3-dihydro-benzo[b][1,4]diazepin-2-one] | 185 °C
COCCN(C)c1cc2c(cc1Cl)NC(=O)CC(c1cccc(-n3ccnn3)c1)=N2 [Example 14, 8-Chloro-7-[(2-methoxy-ethyl)-methyl-amino]-4-(3-[1,2,3]triazol-1-yl-phenyl)-1,3-dihydro-benzo[b][1,4]diazepin-2-one] | 156 °C
CN(C)c1cc2c(cc1Cl)NC(=O)CC(c1ccnc(C#N)c1)=N2 [Example 15, 4-(7-Chloro-8-dimethylamino-4-oxo-4,5-dihydro-3H-benzo[b][1,4]diazepin-2-yl)-pyridine-2-carbonitrile] | 216 °C
CN(C)c1cc2c(cc1C(F)(F)F)NC(=O)CC(c1cccc(-n3nncc3CO)c1)=N2 [Example 17, 7-Dimethylamino-4-[3-(5-hydroxymethyl-[1,2,3]triazol-1-yl)-phenyl]-8-trifluoromethyl-1,3-dihydro-benzo[b][1,4]diazepin-2-one] | 210 °C
Cc1cc(-c2cccc(C3=Nc4cc(N(C)C)c(C(F)(F)F)cc4NC(=O)C3)c2)on1 [Example 18, 7-Dimethylamino-4-[3-(3-methyl-isoxazol-5-yl)-phenyl]-8-trifluoromethyl-1,3-dihydro-benzo[b][1,4]diazepin-2-one] | 223 °C
CN(C)Cc1cnnn1-c1cccc(C2=Nc3cc(N(C)C)c(Cl)cc3NC(=O)C2)c1 [Example 20, 8-Chloro-7-dimethylamino-4-[3-(5-dimethylaminomethyl-[1,2,3]triazol-1-yl)-phenyl]-1,3-dihydro-benzo[b][1,4]diazepin-2-one] | 145 to 160 °C
COCc1cc(-c2cccc(C3=Nc4cc(N(C)C)c(Cl)cc4NC(=O)C3)c2)on1 [Example 21, 8-Chloro-7-dimethylamino-4-[3-(3-methoxymethyl-isoxazol-5-yl)-phenyl]-1,3-dihydro-benzo[b][1,4]diazepin-2-one] | 191 °C
CN(C)c1cc2c(cc1C(F)(F)F)NC(=O)CC(c1ccnc(C#N)c1)=N2 [Example 22, 4-(8-Dimethylamino-4-oxo-7-trifluoromethyl-4,5-dihydro-3H-benzo[b][1,4]diazepin-2-yl)-pyridine-2-carbonitrile] | 248 °C
O=C1CC(c2cccc(-n3ccnc3)c2)=Nc2cc(OCC(F)(F)F)c(-c3ccccc3F)cc2N1 [Example 23, 8-(2-Fluoro-phenyl)-4-(3-imidazol-1-yl-phenyl)-7-(2,2,2-trifluoro-ethoxy)-1,3-dihydro-benzo[b][1,4]diazepin-2-one] | 208 to 210 °C
O=C1CC(c2cccc(-n3nncc3CO)c2)=Nc2cc(OCC(F)(F)F)c(-c3ccccc3F)cc2N1 [Example 26, 8-(2-Fluoro-phenyl)-4-[3-(5-hydroxymethyl-[1,2,3]triazol-1-yl)-phenyl]-7-(2,2,2-trifluoro-ethoxy)-1,3-dihydro-benzo[b][1,4]diazepin-2-one] | 232 to 234 °C
CCN(C)c1cc2c(cc1Cl)NC(=O)CC(c1cccc(-n3nncc3CO)c1)=N2 [Example 28, 8-Chloro-7-(ethyl-methyl-amino)-4-[3-(5-hydroxymethyl-[1,2,3]triazol-1-yl)-phenyl]-1,3-dihydro-benzo[b][1,4]diazepin-2-one] | 206 °C (dec.)
CN(C)c1cc2c(cc1Cl)NC(=O)CC(c1cccc(-c3cc(CO)no3)c1)=N2 [Example 31, 8-Chloro-7-dimethylamino-4-[3-(3-hydroxymethyl-isoxazol-5-yl)-phenyl]-1,3-dihydro-benzo[b][1,4]diazepin-2-one] | 132 °C

Results, then the compound that gave them:

melting point | Structure (SMILES)
225 °C | CN(C)c1cc2c(cc1C(F)(F)F)NC(=O)CC(c1cccc(-c3ccnn3C)c1)=N2 [Example 33, 7-Dimethylamino-4-[3-(2-methyl-2H-pyrazol-3-yl)-phenyl]-8-trifluoromethyl-1,3-dihydro-benzo[b][1,4]diazepin-2-one]
199 to 201 °C | CN(c1cc2c(cc1Cl)NC(=O)CC(c1ccnc(C#N)c1)=N2)C1CC1 [Example 34, 4-[7-Chloro-8-(cyclopropyl-methyl-amino)-4-oxo-4,5-dihydro-3H-benzo[b][1,4]diazepin-2-yl]-pyridine-2-carbonitrile]
232 to 233 °C | Cc1noc(-c2cccc(C3=Nc4cc(N(C)C)c(Cl)cc4NC(=O)C3)c2)c1CO [Example 35, 8-Chloro-7-dimethylamino-4-[3-(4-hydroxymethyl-3-methyl-isoxazol-5-yl)-phenyl]-1,3-dihydro-benzo[b][1,4]diazepin-2-one]
195 to 197 °C | Cc1cc(-c2cccc(C3=Nc4cc(N(C)C5CC5)c(Cl)cc4NC(=O)C3)c2)on1 [Example 36, 8-Chloro-7-(cyclopropyl-methyl-amino)-4-[3-(3-methyl-isoxazol-5-yl)-phenyl]-1,3-dihydro-benzo[b][1,4]diazepin-2-one]
200 °C | CN(C)Cc1cnnn1-c1cccc(C2=Nc3cc(N(C)C)c(C(F)(F)F)cc3NC(=O)C2)c1 [Example 38, 7-Dimethylamino-4-[3-(5-dimethylaminomethyl-[1,2,3]triazol-1-yl)-phenyl]-8-trifluoromethyl-1,3-dihydro-benzo[b][1,4]diazepin-2-one]
184 °C | CN(C)c1cc2c(cc1Cl)NC(=O)CC(c1cccc(-c3cc(CO)nn3C)c1)=N2 [Example 39, 8-Chloro-7-dimethylamino-4-[3-(5-hydroxymethyl-2-methyl-2H-pyrazol-3-yl)-phenyl]-1,3-dihydro-benzo[b][1,4]diazepin-2-one]
188 °C (dec.) | N#Cc1cc(C2=Nc3cc(N4CCCC4)c(C(F)(F)F)cc3NC(=O)C2)ccn1 [Example 40, 4-(4-Oxo-8-pyrrolidin-1-yl-7-trifluoromethyl-4,5-dihydro-3H-benzo[b][1,4]diazepin-2-yl)-pyridine-2-carbonitrile]
134 °C | O=C1CC(c2cccc(-n3nncc3CO)c2)=Nc2cc(N3CCCC3)c(C(F)(F)F)cc2N1 [Example 41, 4-[3-(5-Hydroxymethyl-[1,2,3]triazol-1-yl)-phenyl]-7-pyrrolidin-1-yl-8-trifluoromethyl-1,3-dihydro-benzo[b][1,4]diazepin-2-one]
75 °C | CN(C)c1cc2c(cc1F)NC(=O)CC(c1cccc(-n3nncc3CO)c1)=N2 [Example 42, 7-Dimethylamino-8-fluoro-4-[3-(5-hydroxymethyl-[1,2,3]triazol-1-yl)-phenyl]-1,3-dihydro-benzo[b][1,4]diazepin-2-one]
181 °C | CN(C)Cc1cnnn1-c1cccc(C2=Nc3cc(N(C)C)c(F)cc3NC(=O)C2)c1 [Example 43, 7-Dimethylamino-4-[3-(5-dimethylaminomethyl-[1,2,3]triazol-1-yl)-phenyl]-8-fluoro-1,3-dihydro-benzo[b][1,4]diazepin-2-one]
187 °C | CN(C)c1cc2c(cc1F)NC(=O)CC(c1cccc(-c3cc(CO)no3)c1)=N2 [Example 44, 7-Dimethylamino-8-fluoro-4-[3-(3-hydroxymethyl-isoxazol-5-yl)-phenyl]-1,3-dihydro-benzo[b][1,4]diazepin-2-one]
180 to 182 °C | CN(C)c1cc2c(cc1Cl)NC(=O)CC(c1cccc(-n3nncc3CN3CCCC3)c1)=N2 [Example 45, 8-Chloro-7-dimethylamino-4-[3-(5-pyrrolidin-1-ylmethyl-[1,2,3]triazol-1-yl)-phenyl]-1,3-dihydro-benzo[b][1,4]diazepin-2-one]
153 °C | CN(C)c1cc2c(cc1Cl)NC(=O)CC(c1cccc(-n3nncc3CN3CCC3)c1)=N2 [Example 48, 4-[3-(5-Azetidin-1-ylmethyl-[1,2,3]triazol-1-yl)-phenyl]-8-chloro-7-dimethylamino-1,3-dihydro-benzo[b][1,4]diazepin-2-one]
211 °C (dec.) | CN(C)c1cc2c(cc1Cl)NC(=O)CC(c1cccc(-c3cc(CO)on3)c1)=N2 [Example 49, 8-Chloro-7-dimethylamino-4-[3-(5-hydroxymethyl-isoxazol-3-yl)-phenyl]-1,3-dihydro-benzo[b][1,4]diazepin-2-one]
